Reference: US9056111B1, “Selective efflux inhibitors and related pharmaceutical compositions and methods of treatment” (STC.UNM, priority 2011, dated 2015)
Values joined by “and” are separate entries in the source; they are usually repeats but may differ in a detail not shown here. Equal values may be shown once. Read-outs that look alike come from different tables or passages of the source.

Key:
[1] = target: ABCB1 (Homo sapiens, UniProt P08183); experiment: JC-1 efflux inhibition dose response, flow cytometry, Jurkat-DNR cells; conditions: for IC50: Jurkat-DNR cells over-expressing ABCB1, averages of two to four replicates
Method: (§1) The HyperCyt® high throughput flow cytometry platform (IntelliCyt™, Albuquerque, N. Mex.) was used to sequentially sample cells from 384-well microplates (2 μL/sample) for flow cytometer presentation at a rate of 40 samples per minute.^62-63 Flow cytometric analysis was performed on a CyAn™ flow cytometer (Beckman-Coulter, Fullerton, Calif.). The resulting time-gated data files were analyzed with HyperView® software to determine compound activity in each well. Inhibition response curves were fitted by Prism® software (GraphPad Software, Inc., San Diego, Calif.) using nonlinear least-squares regression in a sigmoidal dose response model with variable slope, also known as the four-parameter logistic equation. This type of time-gated flow cytometric data analysis was described in detail for a previous ABC transporter screen from our group.^56
The assay provider's ABCB1 over-expressing Jurkat-DNR cell line is used for confirmatory follow up instead of the CCRF-Adr cells. Each cell line (Jurkat-DNR and Ig-MXP3) is run separately against all compounds (no differential cell staining) in dose response. The assay is conducted in 384-well format in a total volume of 15.1 μL. Cells and reagents are added sequentially as follows: 1) PBS buffer (5 μL/well); 2) test compound (100 nL/well); 3) drug-resistant cells (10 μL/well) pre-stained with the JC-1 substrate at 1 μM. Final in-well concentrations of test compound range from 50 μM to 69 nM over an 18 point dose response and the cell concentration is 1×10^6 cells/mL. Nicardipine (50 μM) is added to each plate as a pan-inhibition positive control. The plate is rotated end-over-end at 4 RPM and 25° C. for 30 minutes and then cell samples are analyzed and flow cytometric data of light scatter and fluorescence emission at 530+/−20 nm (488 nm excitation, FL1) are collected.
(§2) Each cell line (Jurkat-DNR and Ig-MXP3) was run separately against all compounds (no differential cell staining) in dose-response. The protocol differed from the single point screen as describe here. Cells and reagents were added sequentially as follows: 1) PBS buffer (5 μL per well); 2) test compound (100 nL per well); 3) drug-resistant cells (10 μL, per well) pre-exposed to the JC-1 substrate at 1 μM just prior to the well addition. Final in-well concentrations of test compound ranged from 50 μM to 69 nM over an 18 point dose-response and the cell concentration was 1×10^6 cells mL^−1.

[2] = system: Jurkat-DNR cells; experiment: Direct cytotoxicity (Toxic Dose 50) without chemotherapeutic
Method: Cells (ABCB1, Jurkat-DNR or ABCG2 Ig-MXP3) are incubated with the test compound (3 order of magnitude concentration range) over a 3-day and 7-day period in the presence of the inhibitor and chemotherapeutic (ABCB1, DNR or ABCG2 MTX), such that a cell concentration of at least 1×10^5 cells/mL is maintained. Cell viability is determined by trypan blue staining and enumeration under light microscopy. […] A chemoreversal index (Chemoreversal 50, CR50) is determined from the viability assessment. Using a similar approach, a direct cytotoxicity index (Toxic Dose 50, TD50) is determined by assessment of cell death of cells grown in media alone.
Cells (ABCB1, Jurkat-DNR or ABCG2 Ig-MXP3) were incubated with the test compound in a 3 order of magnitude concentration range over three and seven day periods in the presence of the inhibitor and chemotherapeutic (ABCB1, 100 nM DNR or ABCG2 30 nM MTX), such that a cell concentration of at least 1×10^5 cells mL^−1 was maintained. Cell viability was determined by trypan blue staining and enumeration under light microscopy. […] A chemoreversal index (Chemoreversal 50, CR50) was determined from the viability assessment. Using a similar approach, a direct cytotoxicity index (Toxic Dose 50, TD50) was determined by assessment of cell death of cells grown in media alone.

[3] = system: ABCB1 over-expressing Jurkat-DNR cells; experiment: Chemoreversal assay: potentiation of daunorubicin (DNR) killing; assay type: cell-based
[4] = system: Ig-MXP3 cells; experiment: Direct cytotoxicity (Toxic Dose 50) without chemotherapeutic; assay type: cell-based
[5] = system: ABCG2 over-expressing Ig-MXP3 cells; experiment: Chemoreversal assay: potentiation of mitoxantrone (MTX) killing; assay type: cell-based; conditions: Ig-MXP3 cells
[6] = target: T1, ABCB1 / ABCG2 (Homo sapiens, UniProt Q9UNQ0); experiment: JC-1 efflux inhibition dose response, flow cytometry, Ig-MXP3 cells; conditions: human, probe JC-1 (1 µM), ~Fold G2 Selective (B1/G2), quotient of average ABCB1 IC50 and average ABCG2 IC50, efflux assay
T1 sequence (Q9UNQ0 1-655): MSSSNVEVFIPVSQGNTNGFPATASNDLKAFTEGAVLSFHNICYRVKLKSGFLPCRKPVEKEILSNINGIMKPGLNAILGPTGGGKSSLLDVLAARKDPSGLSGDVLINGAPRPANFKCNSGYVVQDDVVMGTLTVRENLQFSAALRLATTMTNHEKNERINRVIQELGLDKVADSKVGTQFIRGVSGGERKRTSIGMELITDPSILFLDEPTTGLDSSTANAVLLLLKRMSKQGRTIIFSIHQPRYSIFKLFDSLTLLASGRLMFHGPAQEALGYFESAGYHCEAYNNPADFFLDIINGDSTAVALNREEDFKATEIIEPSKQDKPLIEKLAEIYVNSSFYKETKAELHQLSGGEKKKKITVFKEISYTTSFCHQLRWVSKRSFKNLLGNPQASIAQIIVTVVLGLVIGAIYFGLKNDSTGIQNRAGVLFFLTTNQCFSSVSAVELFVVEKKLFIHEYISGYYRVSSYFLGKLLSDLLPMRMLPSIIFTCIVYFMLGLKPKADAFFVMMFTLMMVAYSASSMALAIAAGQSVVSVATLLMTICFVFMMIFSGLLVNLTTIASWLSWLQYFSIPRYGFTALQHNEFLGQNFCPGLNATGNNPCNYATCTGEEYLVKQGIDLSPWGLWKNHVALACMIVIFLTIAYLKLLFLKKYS
Method: as §1
(§3) The assay provider's ABCB1 over-expressing Jurkat-DNR cell line is used for confirmatory follow up instead of the CCRF-Adr cells. Each cell line (Jurkat-DNR and Ig-MXP3) is run separately against all compounds (no differential cell staining) in dose response. The assay is conducted in 384-well format in a total volume of 15.1 μL. Cells and reagents are added sequentially as follows: 1) PBS buffer (5 μL/well); 2) test compound (100 nL/well); 3) drug-resistant cells (10 μL/well) pre-stained with the JC-1 substrate at 1 μM. […] Nicardipine (50 μM) is added to each plate as a pan-inhibition positive control.
as §2, with “addition.” for “addition. Final in-well concentrations of test compound ranged from 50 μM to 69 nM over an 18 point dose-response and the cell concentration was 1×10^6 cells mL^−1.”

[7] = target: T2, ABCG2 (Homo sapiens, UniProt Q9UNQ0); experiment: as above; conditions: for ~Fold G2 Selective (B1/G2): quotient of average ABCB1 IC50 and average ABCG2 IC50, efflux assay
T2 sequence (Q9UNQ0 1-655): T1 sequence (Q9UNQ0 1-655)
Method: as §1, §3
as §2, with “addition.” for “addition. Final in-well concentrations of test compound ranged from 50 μM to 69 nM over an 18 point dose-response and the cell concentration was 1×10^6 cells mL^−1.”

[8] = IC50 ABCB1 (efflux inhibition of JC-1 substrate)
[9] = Jurkat-DNR cells, inhibitor without chemotherapeutic
[10] = constant 100 nM DNR, varied inhibitor dose, read-out: CR50 ABCB1
[11] = Ig-MXP3 cells, inhibitor without chemotherapeutic
[12] = constant 30 nM MTX, varied inhibitor dose, read-out: CR50 ABCG2
[13] = read-out: IC50 ABCB1 (efflux inhibition of JC-1 substrate)
[14] = read-out: IC50 ABCG2 (efflux inhibition of JC-1 substrate), Ig-MXP3 cells over-expressing ABCG2, averages of two to four replicates

Chain of ABCB1 (P08183 whole entry): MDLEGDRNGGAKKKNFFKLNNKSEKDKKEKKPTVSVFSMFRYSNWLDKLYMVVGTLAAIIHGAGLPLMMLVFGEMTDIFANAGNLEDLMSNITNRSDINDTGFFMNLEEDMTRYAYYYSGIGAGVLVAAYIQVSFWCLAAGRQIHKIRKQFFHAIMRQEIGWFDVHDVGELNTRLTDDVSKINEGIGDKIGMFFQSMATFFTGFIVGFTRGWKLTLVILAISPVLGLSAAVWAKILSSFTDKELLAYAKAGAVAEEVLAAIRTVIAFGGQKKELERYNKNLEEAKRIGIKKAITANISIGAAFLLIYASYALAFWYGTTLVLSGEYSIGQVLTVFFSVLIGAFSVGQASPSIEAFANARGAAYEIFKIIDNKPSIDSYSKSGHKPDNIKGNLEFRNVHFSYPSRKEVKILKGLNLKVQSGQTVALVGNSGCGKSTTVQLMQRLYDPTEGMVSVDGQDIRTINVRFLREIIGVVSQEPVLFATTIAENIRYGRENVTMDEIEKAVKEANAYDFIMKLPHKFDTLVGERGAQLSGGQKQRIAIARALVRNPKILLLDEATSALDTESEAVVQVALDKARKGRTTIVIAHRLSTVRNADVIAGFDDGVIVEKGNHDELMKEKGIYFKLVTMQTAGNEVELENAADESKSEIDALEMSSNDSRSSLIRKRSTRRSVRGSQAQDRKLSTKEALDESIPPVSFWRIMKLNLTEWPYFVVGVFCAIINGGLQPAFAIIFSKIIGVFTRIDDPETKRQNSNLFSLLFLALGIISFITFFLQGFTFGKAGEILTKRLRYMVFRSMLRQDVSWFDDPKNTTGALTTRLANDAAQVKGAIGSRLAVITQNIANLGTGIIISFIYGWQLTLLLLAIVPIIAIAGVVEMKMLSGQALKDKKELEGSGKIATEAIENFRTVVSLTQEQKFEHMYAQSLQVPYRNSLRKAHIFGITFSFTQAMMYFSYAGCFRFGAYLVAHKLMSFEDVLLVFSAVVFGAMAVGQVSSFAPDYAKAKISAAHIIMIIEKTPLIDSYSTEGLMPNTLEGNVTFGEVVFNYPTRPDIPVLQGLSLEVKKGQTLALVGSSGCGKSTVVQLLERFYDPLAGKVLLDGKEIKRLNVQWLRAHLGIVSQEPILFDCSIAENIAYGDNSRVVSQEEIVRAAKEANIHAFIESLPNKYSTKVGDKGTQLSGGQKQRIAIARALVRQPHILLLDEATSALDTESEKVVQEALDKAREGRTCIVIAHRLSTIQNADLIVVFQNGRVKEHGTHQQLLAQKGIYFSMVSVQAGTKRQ

Row | Structure (SMILES) | IC50 [1, 8] | TD50 ABCB1 [2, 9] [µM] | EC50 [3, 10] [nM] | TD50 ABCG2 [4, 11] [µM] | EC50 [5, 12] [nM] | selectivity ratio at 30 min [6] | IC50 [7] [nM] | IC50 [1, 13] [nM] | further results
1 | O=C(c1ccoc1)N1CCN(c2cc(-c3ccoc3)nc3cc(-c4ccccc4)nn23)CC1 [Compound 61] | 1600 nM | 7.33 | 420 | 18.30 | 760 | 1.1 | 1400 |  | 
2 | O=C(c1ccncc1)N1CCN(c2cc(-c3ccccc3)nc3cc(-c4cccc(Cl)c4)nn23)CC1 [Compound 21] | 1160 ± 300 nM | 10.90 | 250 | 28.30 | 150 | 1.1 | 1030 ± 230 |  | 
3 | O=C(c1ccoc1)N1CCN(c2cc(-c3ccncc3)nc3cc(-c4cccc(Cl)c4)nn23)CC1 [Compound 31] | 3680 ± 350 nM | 13.50 | 600 | 57.80 | 890 | 2.5 | 1460 ± 350 |  | 
4 | COc1ccccc1-c1cc(N2CCN(C(=O)c3ccoc3)CC2)n2nc(-c3ccccc3)cc2n1 [Compound 44] | 4520 nM and 4620 nM | 3.73 | 170 | 7.62 | 680 | 1.2 | 3660 ± 2540 |  | 
5 | O=C(NCCCN1CCOCC1)c1cnn2c(-c3ccccc3)cc(-c3ccccc3)nc12 [Compound 6, reference compound] |  |  | 220 |  | 3610 |  |  |  | IC50 ([1]; read-out: IC50 ABCB1 (efflux inhibition of JC-1 substrate), listed as reversan): 4400 nM and 4410 nM; TD50 ABCB1 [2]: 7.04 µM; EC50 ([3]; constant 100 nM DNR, varied inhibitor dose, listed as reversan, read-out: CR50 ABCB1): 2200 nM; TD50 ABCG2 [4]: >100 µM; EC50 ([5]; constant 30 nM MTX, varied inhibitor dose, listed as reversan, read-out: CR50 ABCG2): 3600 nM; IC50 ([7]; read-out: IC50 ABCG2 (efflux inhibition of JC-1 substrate), Ig-MXP3 cells over-expressing ABCG2, averages of two to four replicates, listed as reversan): 800 nM and 840 nM
6 | Cc1nc2cc(-c3cccc(Cl)c3)nn2c(N2CCN(C(=O)c3ccco3)CC2)c1C [Compound 9] | 8400 ± 700 nM | >100 |  | 47.40 | 170 | 3.2 | 2650 ± 1070 |  | 
7 | O=C(c1ccoc1)N1CCN(c2cc(-c3ccco3)nc3cc(-c4ccco4)nn23)CC1 [Compound 52] | 1700 nM | 1.93 | 190 | >100 | 1210 | 0.7 | 2350 |  | 
8 | COc1ccc2c3c([nH]c2c1)[C@H](CC(C)C)N1C(=O)[C@H](CCC(=O)OC(C)(C)C)NC(=O)[C@@H]1C3 [Compound 4, reference compound] |  | 2.84 |  | 20.00 |  |  |  |  | 
9 | COc1cccc(-c2cc3nc(-c4ccco4)cc(N4CCN(C(=O)c5ccoc5)CC4)n3n2)c1 [Compound 56] |  |  | 470 |  | 1000 |  |  | 7400 | TD50 ABCB1 [2]: 5.52 µM; TD50 ABCG2 [4]: >100 µM; ~Fold G2 Selective (B1/G2) [7]: 3.3 fold; IC50 [7, 14]: 2260 nM
10 | O=C(c1ccco1)N1CCN(c2cc(-c3ccccc3)nc3cc(-c4cccc(Cl)c4)nn23)CC1 [Compound 8] |  |  | 250 |  | 140 |  |  | 6180 | EC50 ([3]; constant 100 nM DNR, varied inhibitor dose, listed as SID 85240370, read-out: CR50 ABCB1): 700 nM; ~Fold G2 Selective (B1/G2) [7]: 6.4 fold; IC50 [7, 14]: 960 nM
11 | CN(C)C(=O)CCSC(SCCC(=O)O)c1cccc(/C=C/c2ccc3ccc(Cl)cc3n2)c1 (stereo not shown) [Compound 5, reference compound] | > 50000 nM | 20.40 | 20400 | 57.40 | 57400 |  | > 50000 | > 50000 | efflux inhibition activity ABCB1 ([1]; JC-1 efflux, Jurkat-DNR): didn't observe any inhibition; efflux inhibition activity ABCG2 ([7]; JC-1 efflux, Ig-MXP3): didn't observe any inhibition
12 | COc1cc2c(cc1OC)CN(CCc1ccc(NC(=O)c3cccc(/C=c4\[nH]c(=O)/c(=C/c5ccccc5)n(C)c4=O)c3)cc1)CC2 [Compound 2, reference compound] |  |  |  |  |  |  |  | 610 ± 430 | IC50 ([1]; read-out: IC50 ABCB1 (efflux inhibition of JC-1 substrate), listed as XR9051): 600 nM; TD50 ABCB1 [2]: 1.97 µM; EC50 ([3]; values in nM, read-out: chemoreversal (CR50) ABCB1): 10 nM; TD50 ABCG2 [4]: 21.40 µM; EC50 ([5]; values in nM, listed as XR9051, read-out: chemoreversal (CR50) ABCG2): 700 nM; EC50 ([5]; values in nM, read-out: chemoreversal (CR50) ABCG2): 650 nM; IC50 [7, 14]: 2270 ± 2050 nM; IC50 ([7]; read-out: IC50 ABCG2 (efflux inhibition of JC-1 substrate), Ig-MXP3 cells over-expressing ABCG2, averages of two to four replicates, listed as XR9051): 2300 nM
